In ChEMBL document CHEMBL1909294, “Translating clinical findings into knowledge in drug safety evaluation--drug induced liver injury prediction system (DILIps)” (PLoS Comput Biol, 2011):

Tests used:
Hepatotoxicity [1] = system: Hepatotoxicity;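 as to HepSE Combined Scores: combined hepatic side effect score as listed in the training data of the Drug Induced Liver Injury Prediction System (DILIps)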;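 as to HepSE bilirubinemia: bilirubinemia hepatic side effect score drawn from the DILIps training data, a prediction system for drug-induced liver injury; call rule not given here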;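 as to HepSE cholecystitis: Cholecystitis-related hepatic side effect score drawn from the DILIps (drug-induced liver injury prediction) training data set; call rule not given here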;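 as to HepSE cholelithiasis: hepatic side effect score for cholelithiasis, drawn from the DILIps training data for predicting drug-induced liver injury; call rule not given here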;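 as to HepSE cirrhosis: cirrhosis hepatic side effect score taken from the DILIps (drug-induced liver injury prediction) training set; call rule not given here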;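 as to HepSE jaundice: Jaundice-related hepatic side-effect score drawn from the training data of the DILIps (drug-induced liver injury prediction system); call rule not given here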; as to HepSE liver disease: call rule not given here
Hepatotoxicity [2] = system: Hepatotoxicity; remark: listed apart in the source;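 as to HepSE Combined Scores: combined hepatic side effect score as listed in the training data of the Drug Induced Liver Injury Prediction System (DILIps)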;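 as to HepSE bilirubinemia: bilirubinemia hepatic side effect score drawn from the DILIps training data, a prediction system for drug-induced liver injury; call rule not given here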;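 as to HepSE cholecystitis: Cholecystitis-related hepatic side effect score drawn from the DILIps (drug-induced liver injury prediction) training data set; call rule not given here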;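 as to HepSE cholelithiasis: hepatic side effect score for cholelithiasis, drawn from the DILIps training data for predicting drug-induced liver injury; call rule not given here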;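 as to HepSE cirrhosis: cirrhosis hepatic side effect score taken from the DILIps (drug-induced liver injury prediction) training set; call rule not given here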;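 as to HepSE jaundice: Jaundice-related hepatic side-effect score drawn from the training data of the DILIps (drug-induced liver injury prediction system); call rule not given here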; as to HepSE liver disease: call rule not given here
Hepatotoxicity [3] = system: Hepatotoxicity; remark: listed apart in the source;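 as to HepSE Combined Scores: combined hepatic side effect score as listed in the training data of the Drug Induced Liver Injury Prediction System (DILIps)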;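 as to HepSE bilirubinemia: bilirubinemia hepatic side effect score drawn from the DILIps training data, a prediction system for drug-induced liver injury; call rule not given here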;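 as to HepSE cholecystitis: Cholecystitis-related hepatic side effect score drawn from the DILIps (drug-induced liver injury prediction) training data set; call rule not given here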;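 as to HepSE cirrhosis: cirrhosis hepatic side effect score taken from the DILIps (drug-induced liver injury prediction) training set; call rule not given here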;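 as to HepSE jaundice: Jaundice-related hepatic side-effect score drawn from the training data of the DILIps (drug-induced liver injury prediction system); call rule not given here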; as to HepSE liver disease: call rule not given here
Hepatotoxicity [4] = system: Hepatotoxicity; remark: listed apart in the source;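 as to HepSE Combined Scores: combined hepatic side effect score as listed in the training data of the Drug Induced Liver Injury Prediction System (DILIps)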;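 as to HepSE bilirubinemia: bilirubinemia hepatic side effect score drawn from the DILIps training data, a prediction system for drug-induced liver injury; call rule not given here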;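 as to HepSE cholecystitis: Cholecystitis-related hepatic side effect score drawn from the DILIps (drug-induced liver injury prediction) training data set; call rule not given here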;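 as to HepSE cirrhosis: cirrhosis hepatic side effect score taken from the DILIps (drug-induced liver injury prediction) training set; call rule not given here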;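 as to HepSE jaundice: Jaundice-related hepatic side-effect score drawn from the training data of the DILIps (drug-induced liver injury prediction system); call rule not given here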; as to HepSE liver disease: call rule not given here
Hepatotoxicity [5] = system: Hepatotoxicity; remark: listed apart in the source; as to HepSE liver disease: call rule not given here
Hepatotoxicity [6] = system: Hepatotoxicity; remark: listed apart in the source; as to HepSE liver disease: call rule not given here
Hepatotoxicity [7] = system: Hepatotoxicity; remark: listed apart in the source
Hepatotoxicity [8] = system: Hepatotoxicity; remark: listed apart in the source
Hepatotoxicity [9] = system: Hepatotoxicity; remark: listed apart in the source
Hepatotoxicity [10] = system: Hepatotoxicity; remark: listed apart in the source
Hepatotoxicity [11] = system: Hepatotoxicity; remark: listed apart in the source
Hepatotoxicity [12] = system: Hepatotoxicity; remark: listed apart in the source
Hepatotoxicity [13] = system: Hepatotoxicity; remark: listed apart in the source
Hepatotoxicity [14] = system: Hepatotoxicity; remark: listed apart in the source

**Q.** With `CCOC(=O)O[C@]1(C(=O)COC(=O)CC)CC[C@H]2[C@@H]3CCC4=CC(=O)C=C[C@]4(C)[C@H]3[C@@H](O)C[C@@]21C` [PREDNICARBATE] as the compound, how does the HepSE_liver disease (Hepatotoxicity [1]) read?
**A.** Its HepSE_liver disease is 0.

**Q.** What about the HepSE_bilirubinemia (Hepatotoxicity [2]) of the same compound?
**A.** The HepSE_bilirubinemia was 0.

**Q.** What about the HepSE_cirrhosis (Hepatotoxicity [3]) of the same compound?
**A.** The HepSE_cirrhosis was 0.

**Q.** And the HepSE_jaundice (Hepatotoxicity [4])?
**A.** Its HepSE_jaundice is 0.

**Q.** What about the HepSE_cholecystitis (Hepatotoxicity [5]) of the same compound?
**A.** The HepSE_cholecystitis was 0.

**Q.** What about the “HepSE_Combined Scores” value (Hepatotoxicity [6]) of the same compound?
**A.** The value was 0.

**Q.** And the HepSE_hepatic necrosis (Hepatotoxicity [7])?
**A.** Its HepSE_hepatic necrosis is 0.

**Q.** And the HepSE_hepatitis (Hepatotoxicity [8])?
**A.** The HepSE_hepatitis was 0.

**Q.** And the HepSE_cholelithiasis (Hepatotoxicity [9])?
**A.** Its HepSE_cholelithiasis is 0.

**Q.** And the HepSE_liver fatty (Hepatotoxicity [10])?
**A.** The HepSE_liver fatty was 0.

**Q.** What about the “HepSE_liver function tests abnormal” value (Hepatotoxicity [11]) of the same compound?
**A.** Its value is 0.

**Q.** And the HepSE_hepatomegaly (Hepatotoxicity [12])?
**A.** Its HepSE_hepatomegaly is 0.

**Q.** And the “HepSE_elevated liver function tests” value (Hepatotoxicity [13])?
**A.** Its value is 0.

**Q.** What about the HepSE_hepatic failure (Hepatotoxicity [14]) of the same compound?
**A.** Its HepSE_hepatic failure is 0.

**Q.** With `C[C@]12C=CC(=O)C=C1CC[C@@H]1[C@@H]2[C@@H](O)C[C@@]2(C)[C@H]1CC[C@]2(O)C(=O)CO` [PREDNISOLONE] as the compound, how does the HepSE_liver disease (Hepatotoxicity [1]) read?
**A.** The HepSE_liver disease was 0.

**Q.** And the HepSE_bilirubinemia (Hepatotoxicity [2])?
**A.** Its HepSE_bilirubinemia is 0.

**Q.** And the HepSE_cirrhosis (Hepatotoxicity [3])?
**A.** The HepSE_cirrhosis was 0.

**Q.** What about the HepSE_jaundice (Hepatotoxicity [4]) of the same compound?
**A.** The HepSE_jaundice was 0.

**Q.** And the HepSE_cholecystitis (Hepatotoxicity [5])?
**A.** Its HepSE_cholecystitis is 0.

**Q.** What about the “HepSE_Combined Scores” value (Hepatotoxicity [6]) of the same compound?
**A.** Its value is 1.

**Q.** And the HepSE_hepatic necrosis (Hepatotoxicity [7])?
**A.** The HepSE_hepatic necrosis was 0.

**Q.** What about the HepSE_hepatitis (Hepatotoxicity [8]) of the same compound?
**A.** The HepSE_hepatitis was 0.

**Q.** What about the HepSE_cholelithiasis (Hepatotoxicity [9]) of the same compound?
**A.** The HepSE_cholelithiasis was 0.

**Q.** And the HepSE_liver fatty (Hepatotoxicity [10])?
**A.** Its HepSE_liver fatty is 0.

**Q.** What about the “HepSE_liver function tests abnormal” value (Hepatotoxicity [11]) of the same compound?
**A.** Its value is 0.

**Q.** And the HepSE_hepatomegaly (Hepatotoxicity [12])?
**A.** Its HepSE_hepatomegaly is 1.

**Q.** And the “HepSE_elevated liver function tests” value (Hepatotoxicity [13])?
**A.** The value was 0.

**Q.** What about the HepSE_hepatic failure (Hepatotoxicity [14]) of the same compound?
**A.** Its HepSE_hepatic failure is 0.

**Q.** For `C[C@]12C=CC(=O)C=C1CC[C@@H]1[C@@H]2C(=O)C[C@@]2(C)[C@H]1CC[C@]2(O)C(=O)CO` [PREDNISONE], which HepSE_liver disease (Hepatotoxicity [1]) is on record?
**A.** Its HepSE_liver disease is 0.

**Q.** What about the HepSE_bilirubinemia (Hepatotoxicity [2]) of the same compound?
**A.** Its HepSE_bilirubinemia is 0.

**Q.** And the HepSE_cirrhosis (Hepatotoxicity [3])?
**A.** The HepSE_cirrhosis was 0.

**Q.** What about the HepSE_jaundice (Hepatotoxicity [4]) of the same compound?
**A.** Its HepSE_jaundice is 0.

**Q.** What about the HepSE_cholecystitis (Hepatotoxicity [5]) of the same compound?
**A.** Its HepSE_cholecystitis is 0.

**Q.** What about the “HepSE_Combined Scores” value (Hepatotoxicity [6]) of the same compound?
**A.** The value was 0.

**Q.** And the HepSE_hepatic necrosis (Hepatotoxicity [7])?
**A.** The HepSE_hepatic necrosis was 0.

**Q.** And the HepSE_hepatitis (Hepatotoxicity [8])?
**A.** The HepSE_hepatitis was 0.

**Q.** What about the HepSE_cholelithiasis (Hepatotoxicity [9]) of the same compound?
**A.** The HepSE_cholelithiasis was 0.

**Q.** What about the HepSE_liver fatty (Hepatotoxicity [10]) of the same compound?
**A.** The HepSE_liver fatty was 0.

**Q.** What about the “HepSE_liver function tests abnormal” value (Hepatotoxicity [11]) of the same compound?
**A.** Its value is 0.

**Q.** What about the HepSE_hepatomegaly (Hepatotoxicity [12]) of the same compound?
**A.** The HepSE_hepatomegaly was 0.

**Q.** And the “HepSE_elevated liver function tests” value (Hepatotoxicity [13])?
**A.** Its value is 0.

**Q.** What about the HepSE_hepatic failure (Hepatotoxicity [14]) of the same compound?
**A.** Its HepSE_hepatic failure is 0.

**Q.** Which results are given for `COc1cc(NC(C)CCCN)c2ncccc2c1` (stereo not drawn) [PRIMAQUINE]?
**A.** HepSE_liver disease (Hepatotoxicity [1]): 0; HepSE_bilirubinemia (Hepatotoxicity [2]): 0; HepSE_cirrhosis (Hepatotoxicity [3]): 0; HepSE_jaundice (Hepatotoxicity [4]): 0; HepSE_cholecystitis (Hepatotoxicity [5]): 0; HepSE_Combined Scores (Hepatotoxicity [6]): 0; HepSE_hepatic necrosis (Hepatotoxicity [7]): 0; HepSE_hepatitis (Hepatotoxicity [8]): 0; HepSE_cholelithiasis (Hepatotoxicity [9]): 0; HepSE_liver fatty (Hepatotoxicity [10]): 0; HepSE_liver function tests abnormal (Hepatotoxicity [11]): 0; HepSE_hepatomegaly (Hepatotoxicity [12]): 0; HepSE_elevated liver function tests (Hepatotoxicity [13]): 0; HepSE_hepatic failure (Hepatotoxicity [14]): 0

**Q.** What does the source list for `CCC1(c2ccccc2)C(=O)NCNC1=O` [PRIMIDONE]?
**A.** HepSE_liver disease (Hepatotoxicity [1]): 0; HepSE_bilirubinemia (Hepatotoxicity [2]): 0; HepSE_cirrhosis (Hepatotoxicity [3]): 0; HepSE_jaundice (Hepatotoxicity [4]): 0; HepSE_cholecystitis (Hepatotoxicity [5]): 0; HepSE_Combined Scores (Hepatotoxicity [6]): 0; HepSE_hepatic necrosis (Hepatotoxicity [7]): 0; HepSE_hepatitis (Hepatotoxicity [8]): 0; HepSE_cholelithiasis (Hepatotoxicity [9]): 0; HepSE_liver fatty (Hepatotoxicity [10]): 0; HepSE_liver function tests abnormal (Hepatotoxicity [11]): 0; HepSE_hepatomegaly (Hepatotoxicity [12]): 0; HepSE_elevated liver function tests (Hepatotoxicity [13]): 0; HepSE_hepatic failure (Hepatotoxicity [14]): 0

**Q.** Which HepSE_liver disease (Hepatotoxicity [1]) does the source give for `CCCN(CCC)S(=O)(=O)c1ccc(C(=O)O)cc1` [PROBENECID] here?
**A.** The HepSE_liver disease was 0.

**Q.** And the HepSE_bilirubinemia (Hepatotoxicity [2])?
**A.** The HepSE_bilirubinemia was 0.

**Q.** And the HepSE_cirrhosis (Hepatotoxicity [3])?
**A.** The HepSE_cirrhosis was 0.

**Q.** And the HepSE_jaundice (Hepatotoxicity [4])?
**A.** Its HepSE_jaundice is 0.

**Q.** What about the HepSE_cholecystitis (Hepatotoxicity [5]) of the same compound?
**A.** Its HepSE_cholecystitis is 0.

**Q.** What about the “HepSE_Combined Scores” value (Hepatotoxicity [6]) of the same compound?
**A.** The value was 1.

**Q.** What about the HepSE_hepatic necrosis (Hepatotoxicity [7]) of the same compound?
**A.** Its HepSE_hepatic necrosis is 1.

**Q.** And the HepSE_hepatitis (Hepatotoxicity [8])?
**A.** Its HepSE_hepatitis is 0.

**Q.** And the HepSE_cholelithiasis (Hepatotoxicity [9])?
**A.** Its HepSE_cholelithiasis is 0.

**Q.** What about the HepSE_liver fatty (Hepatotoxicity [10]) of the same compound?
**A.** Its HepSE_liver fatty is 0.

**Q.** And the “HepSE_liver function tests abnormal” value (Hepatotoxicity [11])?
**A.** Its value is 0.

**Q.** And the HepSE_hepatomegaly (Hepatotoxicity [12])?
**A.** Its HepSE_hepatomegaly is 0.

**Q.** And the “HepSE_elevated liver function tests” value (Hepatotoxicity [13])?
**A.** Its value is 0.

**Q.** What about the HepSE_hepatic failure (Hepatotoxicity [14]) of the same compound?
**A.** The HepSE_hepatic failure was 0.

**Q.** Which results are given for `CCN(CC)CCNC(=O)c1ccc(N)cc1` [PROCAINAMIDE]?
**A.** HepSE_liver disease (Hepatotoxicity [1]): 0; HepSE_bilirubinemia (Hepatotoxicity [2]): 0; HepSE_cirrhosis (Hepatotoxicity [3]): 0; HepSE_jaundice (Hepatotoxicity [4]): 0; HepSE_cholecystitis (Hepatotoxicity [5]): 0; HepSE_Combined Scores (Hepatotoxicity [6]): 2; HepSE_hepatic necrosis (Hepatotoxicity [7]): 0; HepSE_hepatitis (Hepatotoxicity [8]): 0; HepSE_cholelithiasis (Hepatotoxicity [9]): 0; HepSE_liver fatty (Hepatotoxicity [10]): 0; HepSE_liver function tests abnormal (Hepatotoxicity [11]): 0; HepSE_hepatomegaly (Hepatotoxicity [12]): 1; HepSE_elevated liver function tests (Hepatotoxicity [13]): 0; HepSE_hepatic failure (Hepatotoxicity [14]): 1
